According to patent publication EP3375430A1, “FRAGRANCE COMPOSITIONS” (Takasago International Corporation, priority 2017, dated 2018):
One block for each compound: values may come before it.

Tests used:
[1] = Amount of fragrance ingredients retained on paper blotter after evaporation (ethanol extraction, GC-MS); type: physicochemical
Method in brief: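 100 µL of fragrance formulation applied to paper blotters kept at 32°C open to air; at each time three blotters extracted 1 h in ethanol with methyl decanoate internal standard and analysed by GC-MS (HP-5MS, 50–280°C). Amounts averaged over triplicates and expressed as percent of time-zero level.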

[2] = Headspace concentration of fragrance ingredients over blotter (thermal desorption GC-MS); type: physicochemical
Method: The headspace concentration of individual ingredients of fragrance TAK, as formulated in either a conventional EdT (EdT1) or a fragrance composition of the invention (C1), was assessed by the method described below.
A 10 cm length was cut from a standard perfumers' blotter. A sample of 100µL volume was applied to the upper surface of the blotter with a syringe. The blotter was placed on a hot plate thermostatted at 32°C and left to equilibrate for 5 minutes. Two desorption tubes (6cm length 4mm internal diameter) each containing 2 cm length of Tenax TA adsorbent were fitted to the glass part of a headspace apparatus shown in figure 9. The glass part was fitted over the blotter, a metering pump was connected to one of the desorption tubes and air was drawn through the apparatus flushing the headspace over the blotter at a rate of 17mL/min. Sampling continued for about 16.5 minutes until 280mL of air had been extracted. Then the outlet desorption tube was analysed by gas chromatography as described below. The glass part was removed from the blotter which was left on the hotplate until the next sampling time when two fresh desorption tubes were fitted and the extraction procedure repeated for a further 280mL of extracted headspace.
• Initial Temp: 50°C • Initial Time: 5 min • Rate: 3°C /min • Final Temp: 250°C • Final Time: 20 min • Run Time: 91.67 min
• Column: HP-5MS 30m * 0.25mm * 0.25µm • Gas: Helium • Constant pressure 12.675 psi
• Initial Temp: -30°C • Equilibration Time: 0.05 min • Initial Time: 0.00 min • Rate 12°C / min • End Temp: 260°C • Hold Time: 10 min
Temperature program • Initial Temp: 35°C • Delay Time: 0.30 min • Initial Time: 0.00 min • Rate: 30°C / min • End Temp: 250°C • Hold Time: 5.00 min
TDU Settings • Transfer Temp: 250°C • Transfer Temp Mode: Fixed • Desorption Mode: splitless • Sample mode: Retain tube - standby cooling • Standby Temp: 50°C
Detector MS • MS 5973 • Mass range: 35 to 350 • Threshold: 150 • Mass Quad: 150°C • Mass Source: 230°C
Following the procedure of example 2, the headspace concentration of representative ingredients of fragrance COM1 was determined. COM1 was dosed at 5 and 20 % either in control EdT3 and EdT4 or in compositions of the invention C7 and C8, as shown in table 10.
The headspace concentration of individual ingredients of fragrance TAK (see Table 1), as formulated in either a conventional EdT (EdT1) or fragrance compositions of the invention (C14, C15), was assessed by the method described in example 2.

amount of fragrance ingredient retained on blotter (percentage of the initial amount) ([1]; Table 3, fragrance TAK in C1, 15 min, 32°C): 78%
amount of fragrance ingredient retained on blotter (percentage of the initial amount) ([1]; Table 3, fragrance TAK in C1, 60 min, 32°C): 79%
amount of fragrance ingredient retained on blotter (percentage of the initial amount) ([1]; Table 3, fragrance TAK in C1, 120 min, 32°C): 75%
amount of fragrance ingredient retained on blotter (percentage of the initial amount) ([1]; Table 3, fragrance TAK in C1, 240 min, 32°C): 72%
amount of fragrance ingredient retained on blotter (percentage of the initial amount) ([1]; Table 3, fragrance TAK in C1, 480 min, 32°C): 51%
amount of fragrance ingredient retained on blotter (percentage of the initial amount) ([1]; Table 3, fragrance TAK in EdT1, 15 min, 32°C): 91%
amount of fragrance ingredient retained on blotter (percentage of the initial amount) ([1]; Table 3, fragrance TAK in EdT1, 60 min, 32°C): 84%
amount of fragrance ingredient retained on blotter (percentage of the initial amount) ([1]; Table 3, fragrance TAK in EdT1, 120 min, 32°C): 75%
amount of fragrance ingredient retained on blotter (percentage of the initial amount) ([1]; Table 3, fragrance TAK in EdT1, 240 min, 32°C): 65%
amount of fragrance ingredient retained on blotter (percentage of the initial amount) ([1]; Table 3, fragrance TAK in EdT1, 480 min, 32°C): 23%
amount of fragrance ingredient retained on blotter (percentage of the initial amount) ([1]; Table 3, fragrance TAK in EdT1 or C1, T0, set at 100% (normalisation)): 100%
amount of fragrance ingredient retained on blotter (percentage of the initial amount) ([1]; Table 4, fragrance TAK in C2, 15 min, 32°C): 98%
amount of fragrance ingredient retained on blotter (percentage of the initial amount) ([1]; Table 4, fragrance TAK in C2, 480 min, 32°C): 49%
amount of fragrance ingredient retained on blotter (percentage of the initial amount) ([1]; Table 4, fragrance TAK in EdT1, 15 min, 32°C): 87%
amount of fragrance ingredient retained on blotter (percentage of the initial amount) ([1]; Table 4, fragrance TAK in EdT1, 480 min, 32°C): 18%
amount of fragrance ingredient retained on blotter (percentage of the initial amount) ([1]; Table 4, fragrance TAK in EdT1 or C2, T0, set at 100% (normalisation)): 100%
amount of fragrance ingredient retained on blotter (percentage of the initial amount) ([1]; Table 5, fragrance TAK in C3, 15 min, 32°C): 88%
amount of fragrance ingredient retained on blotter (percentage of the initial amount) ([1]; Table 5, fragrance TAK in C3, 60 min, 32°C): 92%
amount of fragrance ingredient retained on blotter (percentage of the initial amount) ([1]; Table 5, fragrance TAK in C3, 120 min, 32°C): 90%
amount of fragrance ingredient retained on blotter (percentage of the initial amount) ([1]; Table 5, fragrance TAK in C3, 240 min, 32°C): 87%
amount of fragrance ingredient retained on blotter (percentage of the initial amount) ([1]; Table 5, fragrance TAK in C3, 480 min, 32°C): 60%
amount of fragrance ingredient retained on blotter (percentage of the initial amount) ([1]; Table 5, fragrance TAK in C3, 1440 min, 32°C): 45%
amount of fragrance ingredient retained on blotter (percentage of the initial amount) ([1]; Table 5, fragrance TAK in EdT1, 15 min, 32°C): 91%
amount of fragrance ingredient retained on blotter (percentage of the initial amount) ([1]; Table 5, fragrance TAK in EdT1, 60 min, 32°C): 84%
amount of fragrance ingredient retained on blotter (percentage of the initial amount) ([1]; Table 5, fragrance TAK in EdT1, 120 min, 32°C): 75%
amount of fragrance ingredient retained on blotter (percentage of the initial amount) ([1]; Table 5, fragrance TAK in EdT1, 240 min, 32°C): 65%
amount of fragrance ingredient retained on blotter (percentage of the initial amount) ([1]; Table 5, fragrance TAK in EdT1, 480 min, 32°C): 23%
amount of fragrance ingredient retained on blotter (percentage of the initial amount) ([1]; Table 5, fragrance TAK in EdT1, 1440 min, 32°C): 6%
amount of fragrance ingredient retained on blotter (percentage of the initial amount) ([1]; Table 5, fragrance TAK in EdT1 or C3, T0, set at 100% (normalisation)): 100%
amount of fragrance ingredient retained on blotter (percentage of the initial amount) ([1]; Table 6, fragrance TAK in C4, 15 min, 32°C): 99%
amount of fragrance ingredient retained on blotter (percentage of the initial amount) ([1]; Table 6, fragrance TAK in C4, 60 min, 32°C): 92%
amount of fragrance ingredient retained on blotter (percentage of the initial amount) ([1]; Table 6, fragrance TAK in C4, 120 min, 32°C): 88%
amount of fragrance ingredient retained on blotter (percentage of the initial amount) ([1]; Table 6, fragrance TAK in C4, 240 min, 32°C): 87%
amount of fragrance ingredient retained on blotter (percentage of the initial amount) ([1]; Table 6, fragrance TAK in C4, 480 min, 32°C): 52%
amount of fragrance ingredient retained on blotter (percentage of the initial amount) ([1]; Table 6, fragrance TAK in EdT1, 15 min, 32°C): 91%
amount of fragrance ingredient retained on blotter (percentage of the initial amount) ([1]; Table 6, fragrance TAK in EdT1, 60 min, 32°C): 84%
amount of fragrance ingredient retained on blotter (percentage of the initial amount) ([1]; Table 6, fragrance TAK in EdT1, 120 min, 32°C): 75%
amount of fragrance ingredient retained on blotter (percentage of the initial amount) ([1]; Table 6, fragrance TAK in EdT1, 240 min, 32°C): 65%
amount of fragrance ingredient retained on blotter (percentage of the initial amount) ([1]; Table 6, fragrance TAK in EdT1, 480 min, 32°C): 23%
amount of fragrance ingredient retained on blotter (percentage of the initial amount) ([1]; Table 6, fragrance TAK in EdT1 or C4, T0, set at 100% (normalisation)): 100%
headspace concentration in composition C1 compared to control EdT1 ([2]; fragrance TAK, T0 + 8h, Figure 4): significantly greater
SMILES: CC(C=O)Cc1ccc(C(C)(C)C)cc1 (stereo not shown) [Lilial™, 3-(4-tert-Butylphenyl)-2-methylpropanal]

amount of fragrance ingredient retained on blotter (percentage of the initial amount) ([1]; Table 9, fragrance COM1 in C5, T0 + 15 min): 84.6%
amount of fragrance ingredient retained on blotter (percentage of the initial amount) ([1]; Table 9, fragrance COM1 in C5, T0 + 480 min): 19.1%
amount of fragrance ingredient retained on blotter (percentage of the initial amount) ([1]; Table 9, fragrance COM1 in C5, T0 +1440 min): 2.62%
amount of fragrance ingredient retained on blotter (percentage of the initial amount) ([1]; Table 9, fragrance COM1 in C6, T0 + 15 min): 73.2%
amount of fragrance ingredient retained on blotter (percentage of the initial amount) ([1]; Table 9, fragrance COM1 in C6, T0 + 480 min): 14%
amount of fragrance ingredient retained on blotter (percentage of the initial amount) ([1]; Table 9, fragrance COM1 in C6, T0 +1440 min): 3.1%
amount of fragrance ingredient retained on blotter (percentage of the initial amount) ([1]; Table 9, fragrance COM1 in EdT2, C5 or C6, T0, set at 100% (normalisation)): 100%
amount of fragrance ingredient retained on blotter (percentage of the initial amount) ([1]; Table 9, fragrance COM1 in EdT2, T0 + 15 min): 75.7%
amount of fragrance ingredient retained on blotter (percentage of the initial amount) ([1]; Table 9, fragrance COM1 in EdT2, T0 + 480 min): 8.41%
amount of fragrance ingredient retained on blotter (percentage of the initial amount) ([1]; Table 9, fragrance COM1 in EdT2, T0 +1440 min): 4.93%
presence in the headspace of composition C8 compared to control EdT4 ([2]; COM1 dosed at 20 wt%, after 8 hours): more present
SMILES: CC/C=C(\C)C(O)CCCCC (stereo not shown) [Undecavertol™, (E)-4-methyldec-3-en-5-ol]
